Experimental findings from ChEMBL document CHEMBL3352561, “Synthesis of natural and non-natural curcuminoids and their neuroprotective activity against glutamate-induced oxidative stress in HT-22 cells” (J Nat Prod, 2014) are described below.

Each structure is given as a SMILES string. The source made the active and inactive calls. The rule behind the calls is not given here.

Data set [1] can be described thus: Cytotoxicity against mouse HT22 cells assessed as cell viability at 25 uM after 24 hrs by MTT assay relative to control. Type of data set: cell-based, HT-22. The following applies: read-out: Activity. (Tetrazolium assays rely on reduction of a dye to a coloured formazan, in cell work by metabolically active cells.)
The nature of data set [2]: Cytotoxicity against mouse HT22 cells assessed as cell viability at 1 uM after 24 hrs by MTT assay relative to control. Type of data set: cell-based, HT-22. The following applies: read-out: Activity.
For data set [3], the system named is HT-22. Nature of the data set: Neuroprotective activity against glutamate-induced neuronal cell death in mouse HT22 cells assessed as increase in cell viability at 10 to 25 uM after 24 hrs by MTT assay relative to control. Type of data set: functional, cell-based.
A short description of data set [4]: Cytotoxicity against mouse HT22 cells assessed as cell viability at 10 uM after 24 hrs by MTT assay relative to control. Type of data set: cell-based, HT-22. The following applies: read-out: Activity.
In data set [5] the test system is HT-22. Description: Neuroprotective activity against glutamate-induced neuronal cell death in mouse HT22 cells assessed as increase in cell viability after 24 hrs by MTT assay relative to control. Type of data set: functional, cell-based.
For data set [6], the system named is HT-22. Nature of the data set: Neuroprotective activity against glutamate-induced neuronal cell death in mouse HT22 cells assessed as increase in cell viability at 5 uM after 24 hrs by MTT assay relative to control. Type of data set: functional.
The test system of data set [7] is HT-22. Nature of the data set: Neuroprotective activity against glutamate-induced neuronal cell death in mouse HT22 cells assessed as increase in cell viability at 10 uM after 24 hrs by MTT assay relative to control. Type of data set: functional.
In data set [8] the test system is HT-22. Description: Neuroprotective activity against t-BuOOH-induced neuronal cell death in mouse HT22 cells assessed as increase in cell viability at 1 to 100 uM after 20 hrs by MTT assay relative to control. Type of data set: functional, cell-based.
The test system of data set [9] is HT-22. Description: (§1) Cytotoxicity against mouse HT22 cells assessed as cell viability at 1 to 25 uM after 24 hrs by MTT assay relative to control. Type of data set: cell-based. The following applies: ht-22, 24 h, 25 µM.
The subject of data set [10] is HT-22. Nature of the data set: Neuroprotective activity against glutamate-induced neuronal cell death in mouse HT22 cells assessed as increase in cell viability at 25 uM after 24 hrs by MTT assay relative to control. Type of data set: functional, cell-based.
The test system of data set [11] is HT-22. Nature of the data set: Neuroprotective activity against glutamate-induced neuronal cell death in mouse HT22 cells assessed as increase in cell viability at 1 to 25 uM after 24 hrs by MTT assay relative to control. Type of data set: functional, cell-based.
Data set [12] in a line: as §1. Type of data set: cell-based, HT-22. The note with it: HT22 cells, read-out: Activity.
Data set [13] can be described thus: Cytotoxicity against mouse HT22 cells assessed as reduction in cell viability at 10 uM after 24 hrs by MTT assay relative to control. Type of data set: cell-based, HT-22. The note with it: read-out: INH.
Data set [14] can be described thus: Cytotoxicity against mouse HT22 cells assessed as reduction in cell viability at 25 uM after 24 hrs by MTT assay relative to control. Type of data set: cell-based, HT-22. The note with it: read-out: INH.

For the molecule `COc1ccc(CCCCC(=O)CCc2ccc(OC)c(OC)c2)cc1OC`, in data set [1], the viability at 24 h, 25 µM was 43%. The viability at 24 h, 1 µM in data set [2] was 75%. In the data set on HT-22 [3], the outcome was inactive.
For the molecule `COc1cc(/C=C/C(=O)CCCCc2ccc(O)c(OC)c2)ccc1O`, in [4], the viability at 24 h, 10 µM came out at 66%. Further, the Activity entry with HT-22 [5] is “Dose-dependent effect”; in the data set with HT-22 [6], 47%; in the data set on HT-22 [7], 62%. Further, the outcome with HT-22 [8] was inactive.
For the molecule `O=C(/C=C/c1ccc(O)c(O)c1)CC(=O)/C=C/c1ccc(O)c(O)c1` [DIDEMETHYLCURCUMIN], the Activity entry in the data set with HT-22 [9] was “Toxic”.
For the molecule `COc1cc(CCC(O)CCCCc2ccc(O)cc2)ccc1O` (centres undefined), the viability at 24 h, 10 µM in data set [4] was found to be 75%. In addition, the Activity result in the data set on HT-22 [5] was “Dose-dependent effect”. The result in the data set with HT-22 [10] was Active.
Take `COc1cc(/C=C/C(=O)CCCCc2ccc(O)cc2)ccc1O`: the viability at 24 h, 10 µM in [4] was found to be 68%. For the same molecule, the Activity result in the data set on HT-22 [5] was “Dose-dependent effect”.
Consider `COc1cc(CCCCC(O)CCc2ccc(O)c(OC)c2)ccc1O` (centres undefined), for which the viability at 24 h, 10 µM in [4] was 73%. Further, the Activity entry in the data set with HT-22 [5] was “Dose-dependent effect”. The outcome in the data set with HT-22 [10] was Active.
In the case of `O=C(/C=C/c1ccc(O)cc1)CC(=O)/C=C/c1ccc(O)cc1` [BISDEMETHOXYCURCUMIN], the Activity entry with HT-22 [9] is given as “Toxic”.
With `Oc1ccc(CCCCC(O)CCc2ccc(O)cc2)cc1` (racemic), the viability at 24 h, 10 µM in data set [4] amounted to 43%. For the same molecule, in data set [1], the viability at 24 h, 25 µM came out at 25%. The outcome in the data set on HT-22 [11] was inactive.
As to `COc1cc(CCCCC(=O)CCc2ccc(O)c(OC)c2)ccc1O`, the viability at 24 h, 10 µM in data set [4] was determined as 70%. The Activity entry in the data set on HT-22 [5] is “Dose-dependent effect”. In addition, the result with HT-22 [10] was Active.
For the molecule `COc1cc(CCCCC(O)CCc2ccc(O)cc2)ccc1O` (centres undefined), the viability at 24 h, 10 µM in data set [4] came to 74%. Also, in the data set with HT-22 [11], the result was inactive.
Turning to `CC(=O)/C=C/c1ccc(O)cc1`, the viability at 24 h, up to 25 µM in data set [12] turned out to be 50%. The outcome in the data set on HT-22 [11] was inactive.
For `COc1cc(/C=C/C(O)=C/C(=O)/C=C/c2ccc(O)cc2)ccc1O` [DEMETHOXYCURCUMIN], the Activity entry with HT-22 [9] is given as “Toxic”. In the data set with HT-22 [11], the outcome was inactive.
Consider `COc1cc(CCC(=O)CCCCc2ccc(O)cc2)ccc1O`, for which, in [12], the viability at 24 h, up to 25 µM was found to be 37%. In addition, in the data set on HT-22 [5], the Activity result was “Dose-dependent effect”. The result with HT-22 [10] was Active.
Consider `COc1cc(CCCCC(=O)/C=C/c2ccc(O)cc2)ccc1O`, for which the viability at 24 h, 10 µM in data set [4] amounted to 67%. Besides, the outcome in the data set on HT-22 [11] was inactive.
As to `O=C(/C=C/c1ccc(O)cc1)CCCCc1ccc(O)cc1`, in data set [4], the viability at 24 h, 10 µM amounted to 43%. Moreover, the viability at 24 h, 25 µM in data set [1] stood at 25%. For the same molecule, the outcome in the data set on HT-22 [11] was inactive.
As to `COc1cc(/C=C/C(C)=O)ccc1O`, the outcome with HT-22 [11] was inactive.
Regarding `O=C(CCCCc1ccc(O)cc1)CCc1ccc(O)cc1`, the viability at 24 h, 10 µM in data set [4] was 43%. Further, the viability at 24 h, 25 µM in data set [1] was 25%.
As to `COc1cc(/C=C/C(=O)CC(=O)/C=C/c2ccc(O)c(OC)c2)ccc1O` [CURCUMIN], the cytotoxicity at 24 h, 10 µM in data set [13] came out at 18%. Also, the cytotoxicity at 24 h, 25 µM in data set [14] worked out at 36%.
Consider `O=C(/C=C/c1ccc(O)c(O)c1)CCCCc1ccc(O)c(O)c1`, for which the viability at 24 h, 25 µM in [1] was 78%. Besides, the outcome in the data set with HT-22 [7] was inactive. The result in the data set with HT-22 [10] and with HT-22 [8] was Active.
As for `COc1cc(CCCCC(=O)CCc2ccc(O)cc2)ccc1O`, the viability at 24 h, 10 µM in data set [4] stood at 71%. Further, the result in the data set with HT-22 [11] was inactive.
